Key:
Format in all cases: in vivo
[1] = tested on: larvae of the mustard beetle (Phaedon cochleariae); assay: Phaedon cochleariae larvae test (sprayed cabbage leaves); conditions: 100 g/ha, single active compound
Text: (§1) The expected action for a given combination of two active compounds can be calculated as follows, according to S. R. Colby, Weeds 15 (1967), 20-22:
(§2) • X is the kill rate, expressed as a percentage of the untreated control, when employing active compound A at an application rate of m g/ha or in a concentration of m ppm, • Y is the kill rate, expressed as a percentage of the untreated control, when employing active compound B at an application rate of n g/ha or in a concentration of n ppm and • E is the kill rate, expressed as a percentage of the untreated control, when employing active compounds A and B at application rates of m and n g/ha or in a concentration of m and n ppm, then
(§3) If the actual kill rate exceeds the calculated value, the kill of the combination is superadditive, i.e. a synergistic effect is present. In this case, the actually observed kill rate must exceed the value calculated using the above formula for the expected kill rate (E).
Phaedon cochleariae Larvae Test
(§4) Solvents: 78 parts by weight of acetone • • 1.5 parts by weight of dimethylformamide Emulsifier: 0.5 part by weight of alkylaryl polyglycol ether
(§5) To produce a suitable preparation of active compound, 1 part by weight of active compound is mixed with the stated amounts of solvents and emulsifier, and the concentrate is diluted with emulsifier-containing water to the desired concentration.
Cabbage leaves (Brassica oleracea) are treated by spraying with the active compound preparation of the desired concentration and are populated with larvae of the mustard beetle (Phaedon cochleariae) while the leaves are still moist.
After the desired period of time, the kill in % is determined. 100% means that all beetle larvae have been killed; 0% means that none of the beetle larvae have been killed. The kill rates determined are entered into Colby's formula.

[2] = tested on: larvae of the army worm (Spodoptera frugiperda); assay: Spodoptera frugiperda larvae test (sprayed cabbage leaves); conditions: single active compound
Text: as §1, §2, §3
Spodoptera frugiperda Larvae Test
as §4, §5
Cabbage leaves (Brassica oleracea) are treated by spraying with the active compound preparation of the desired concentration and are populated with larvae of the army worm (Spodoptera frugiperda) while the leaves are still moist.
After the desired period of time, the kill in % is determined. 100% means that all caterpillars have been killed; 0% means that none of the caterpillars have been killed. The kill rates determined are entered into Colby's formula.

[3] = tested on: greenhouse red spider mite (Tetranychus urticae); assay: Tetranychus test, OP-resistant/spray treatment (bean leaf disks); conditions: 0.16 g/ha, single active compound
Text: as §1, §2, §3
OP-Resistant/Spray Treatment
as §4, §5
Disks of bean leaves (Phaseolus vulgaris) which are infested by all stages of the greenhouse red spider mite (Tetranychus urticae) are sprayed with an active compound preparation of the desired concentration.
After the desired period of time, the activity in % is determined. 100% means that all spider mites have been killed; 0% means that none of the spider mites have been killed.

[4] = tested on: green peach aphid (Myzus persicae); assay: Myzus persicae test (spray treatment of infested cabbage leaves); conditions: single active compound
Text: as §1, §2, §3, §4, §5
Cabbage leaves (Brassica oleracea) which are heavily infested by the green peach aphid (Myzus persicae) are treated by spraying with the active compound preparation of the desired concentration.
After the desired period of time, the kill in % is determined. 100% means that all aphids have been killed; 0% means that none of the aphids have been killed. The kill rates determined are entered into Colby's formula.

Row | Compound | Kill in % after 2d [1] | Kill in % after 2d ([2]; 20 g/ha) | Kill in % after 6d [3] | Kill in % after 1d ([4]; 0.8 g/ha) | Kill in % after 1d ([4]; 4 g/ha) | Kill in % after 1d ([4]; 20 g/ha) | Kill in % after 2d ([2]; 100 g/ha) | Kill in % after 1d ([4]; 100 g/ha)
1 | CCOC(=O)OC1=C(c2cc(C)ccc2C)C(=O)NC12CCC(OC)CC2 (centres unmarked) [compound (IIa)] | 0% | 17% | 10% | 0% | 0% | 0% |  | 
2 | CC(COc1ccc(Oc2ccccc2)cc1)Oc1ccccn1 (centres unmarked) [pyriproxifen, pyriproxyfen] |  |  |  |  |  |  | 0% | 0%
3 | Cc1ccc(/N=C/N(C)/C=N/c2ccc(C)cc2C)c(C)c1 [amitraz] |  | 0% | 0% |  |  |  |  | 
4 | CCOC(=O)OC1=C(c2cc(C)ccc2C)C(=O)N[C@]12CC[C@@H](OC)CC2 [compound (II)] | 0% | 17% | 10% | 0% | 0% | 0% |  | 
5 | CC(C)N1C(=O)N(c2ccccc2)CS/C1=N\C(C)(C)C [buprofezin] | 0% |  |  |  |  |  |  | 
6 | CC1=NNC(=O)N(/N=C/c2cccnc2)C1 [pymetrozine] |  |  |  | 40% |  |  |  | 
7 | N#CCNC(=O)c1cnccc1C(F)(F)F [flonicamid] | 0% |  |  |  |  |  |  | 30%
